The values below come from patent US10822312B2, “Substituted quinazoline compounds and methods of use” (ARAXES PHARMA LLC, priority 2016, dated 2020).

What is called IC50 is the point on the concentration scale where inhibition reaches its midpoint.

Test [1] deals with T1, KRAS WT (GDP-loaded, hexahistidine tagged, truncated 1-169) (Homo sapiens, UniProt P01116).
T1 construct: truncated (1-169) KRAS proteins; hexahistidine
Briefly: SOS-mediated nucleotide exchange assay, KRAS WT. The format is biochemical. As to conditions: SOS(cat)-mediated Bodipy-GDP exchange. Here is the method: (§1) GDP-loaded, hexahistidine tagged, truncated (1-169) KRAS proteins (WT or G12D) were used (stored in protein dilution buffer [20 mM HEPES pH=7.5, 150 NaCl, 1 mM MgCl2]). 1 μL of the respective KRAS protein (1.88 μM stock, 0.125 μM final) was mixed with 10 μL of assay buffer (30 mM TRIS pH=7.5, 1.5 mM MgCl2, 0.135 μM Bodipy-GDP [20 mM TRIS pH=7.5, 1.0 mM MgCl2, 0.09 μM final]) and 1 μL of 15× compound stock in 30% DMSO (final DMSO conc. 2%). After 30 min incubation at room temperature, the exchange reaction was initiated by addition of 3 μL SOS(cat) (catalytic domain, 2.5 μM stock in protein dilution buffer, 0.5 μM final). The assay was carried out in black low-volume plates (Corning #4514) and fluorescence was monitored (485 nm excitation and 510 nm emission) for 45 minutes after initiation at 60-s intervals.
(§2) For data analysis, relative fluorescence values for each sample after subtracting the background values (before SOS addition) were plotted in graph pad. Rates were then calculated by fitting the data by non-linear regression (one phase association curve). Typically, 6 dilutions per compound (3-fold series, starting at 60 μM final) were measured. Calculated rates vs compound concentrations were fitted by non-linear regression (log(inhibitor) vs response-Variable slope (four parameters) fit) to determine IC50 values.
(§3) Compound numbers correspond to the numbers and structures provided in Tables 1, 2 and 3 and Examples 1-4.

Test [2] deals with T2, KRAS G12D (GDP-loaded, hexahistidine tagged, truncated 1-169) (Homo sapiens, UniProt P01116, G12D).
T2 construct: truncated (1-169) KRAS proteins; hexahistidine
Briefly: SOS-mediated nucleotide exchange assay, KRAS G12D. In kind it is biochemical. As to conditions: SOS(cat)-mediated Bodipy-GDP exchange. The protocol:
as §1, §2, §3

T1 sequence (P01116 1-169 isoform P01116-2): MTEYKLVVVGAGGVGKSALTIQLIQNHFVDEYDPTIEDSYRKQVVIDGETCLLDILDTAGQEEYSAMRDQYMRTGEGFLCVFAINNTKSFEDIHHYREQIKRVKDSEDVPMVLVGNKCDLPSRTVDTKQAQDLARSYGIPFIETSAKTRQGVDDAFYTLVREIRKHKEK
T2 sequence (P01116 1-169 isoform P01116-2 G12D): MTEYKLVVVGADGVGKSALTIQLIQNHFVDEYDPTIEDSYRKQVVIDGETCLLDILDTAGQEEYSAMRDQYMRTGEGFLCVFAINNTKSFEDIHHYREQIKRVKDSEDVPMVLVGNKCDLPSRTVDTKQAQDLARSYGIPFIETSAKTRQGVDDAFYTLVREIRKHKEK

`CN(C)C1CN(c2nc(N3CCNCC3)c3cc(Cl)c(-c4cc(O)cc5ccccc45)c(F)c3n2)C1` (atropisomer, axis not shown) [Compound 339]: the concentration for half-maximal inhibition (IC50) in test [1] was > 15 µM.

Turning to `CN(CCCCCN=[N+]=[N-])CCCOc1nc(N2CCNCC2)c2cc(Cl)c(-c3cc(O)cc4ccccc34)c(F)c2n1` [Compound 168], the IC50 in test [2] is > 15 µM.

In the case of `CN(C)C1CN(c2nc(N3CCNCC3)c3cc(Cl)c(-c4cc(O)cc5ccccc45)c(F)c3n2)C1` [Compound 334, 4-(6-Chloro-2-(3-(dimethylamino)azetidin-1-yl)-8-fluoro-4-(piperazin-1-yl)quinazolin-7-yl)naphthalen-2-ol], the concentration for half-maximal inhibition (IC50) in test [2] is < 15 µM. As to `CN(C)CCCOc1nc(N2CCN[C@@H](CO)C2)c2cc(Cl)c(-c3cc(O)cc4ccccc34)c(F)c2n1` [Compound 155], the half-maximal inhibitory concentration (IC50) in test [2] is < 15 µM; in test [1] it was > 15 µM.

`CN(C(=O)CN)C1CN(c2nc(N3CCNCC3)c3cc(Cl)c(-c4cc(O)cc5ccccc45)c(F)c3n2)C1` [Compound 344]: the IC50 in test [2] is < 15 µM; in test [1] it was > 15 µM. Taken in the same sequence, the figures for `CN(C)CCCOc1nc(N2CCNCC2)c2cc(Cl)c(-c3cc(O)cc4ccccc34)c(F)c2n1` (single isomer, unassigned) [Compound 22, 4-(6-chloro-2-(3-(dimethylamino)propoxy)-8-fluoro-4-(piperazin-1-yl)quinazolin-7-yl)naphthalen-2-ol] were < 15 µM and > 15 µM. For `CC(=O)N1CCN(c2nc(OCCCN(C)C)nc3c(F)c(-c4cc(O)cc5ccccc45)c(Cl)cc23)CC1` (single isomer, unassigned) [Compound 18, 1-(4-(6-chloro-2-(3-(dimethylamino)propoxy)-8-fluoro-7-(3-hydroxynaphthalen-1-yl)quinazolin-4-yl)piperazin-1-yl)ethanone], the IC50 in test [2] was > 15 µM; in test [1], < 15 µM. On the same counts, the results for `CN(C)CCCOc1nc(N2CCN[C@@H](C(N)=O)C2)c2cc(Cl)c(-c3cc(O)cc4ccccc34)c(F)c2n1` [Compound 164] are > 15 µM and > 15 µM.

`C[C@@H]1CN(c2nc(N3CC(N(C)C)C3)nc3c(F)c(-c4cc(O)cc5ccccc45)c(Cl)cc23)[C@@H](C)CN1` (atropisomer, axis not shown) [Compound 330]: the half-inhibitory concentration (IC50) in test [2] and in test [1] was > 15 µM in each case. As to `CN(C)CCCOc1nc(N2CCC(C#N)CC2)c2cc(Cl)c(-c3cc(O)cc4ccccc34)c(F)c2n1` [Compound 165], the IC50 in test [2] and in test [1] was > 15 µM each time. On to `CN(C)CCCOc1nc(N2CCOCC2)c2cc(C(F)(F)F)c(-c3cc(O)cc4ccccc34)c(F)c2n1` (atropisomer, axis not shown) [Compound 162], for which the IC50 in test [2] is > 15 µM; in test [1], < 15 µM. As to `CN(C)CCCOc1nc(N2CCN[C@@H](C#N)C2)c2cc(Cl)c(-c3cc(O)cc4ccccc34)c(F)c2n1` [Compound 166], the IC50 in test [2] and in test [1] was > 15 µM each time. With `CC(=O)NCCCCCN(C)CCCOc1nc(N2CCOCC2)c2cc(Cl)c(-c3cc(O)cc4ccccc34)c(F)c2n1` [Compound 171], the IC50 in test [2] and in test [1] was > 15 µM each time. For the compound `CN(C)CCCOc1nc(N2CCNCC2)c2cc(C(F)(F)F)c(-c3cc(O)cc4ccccc34)c(F)c2n1` (atropisomer, axis not shown) [Compound 156], in test [2], the IC50 is < 15 µM. For `C[C@@H]1CN(c2nc(OCCCN(C)C)nc3c(F)c(-c4cc(O)cc5ccccc45)c(Cl)cc23)[C@@H](C)CN1` (atropisomer, axis not shown) [Compound 97], the half-maximal inhibitory concentration (IC50) in test [2] and in test [1] was > 15 µM throughout. With `CN(C(=O)CCl)C1CN(c2nc(N3CCNCC3)c3cc(Cl)c(-c4cc(O)cc5ccccc45)c(F)c3n2)C1` [Compound 351], the 50% inhibitory concentration (IC50) in test [2] and in test [1] was > 15 µM throughout.

Turning to `Cc1cc(N)c2[nH]ncc2c1-c1c(Cl)cc2c(N3CCNCC3)nc(OCCCN(C)C)nc2c1F` [Compound 173], the IC50 in test [2] and in test [1] was > 15 µM each time. `CC(=O)NCCCCCN(C)CCCOc1nc(N2CCNCC2)c2cc(Cl)c(-c3cc(O)cc4ccccc34)c(F)c2n1` [Compound 172]: the figures for the half-maximal inhibitory concentration (IC50) in test [2] and in test [1] were < 15 µM and > 15 µM, respectively. Consider `CN(CCOc1nc(N2CCOCC2)c2cc(Cl)c(-c3cc(O)cc4ccccc34)c(F)c2n1)C(=O)CCl` [Compound 175], for which the IC50 in test [2] and in test [1] was > 15 µM throughout. `O=S(=O)(F)CCOc1nc(N2CCOCC2)c2cc(Cl)c(-c3cc(O)cc4ccccc34)c(F)c2n1` [Compound 176]: the IC50 in test [2] and in test [1] was > 15 µM each time.

On to `Cc1ccc2[nH]ncc2c1-c1c(Cl)cc2c(N3CCNCC3)nc(OCCCN(C)C)nc2c1F` [Compound 108], for which the IC50 in test [2] and in test [1] was > 15 µM each time. For the compound `CN(C)CCCOc1nc(N2CCNC(CC#N)C2)c2cc(Cl)c(-c3cc(O)cc4ccccc34)c(F)c2n1` (centres unmarked) [Compound 170], the figures for the IC50 in test [2] and in test [1] were > 15 µM and < 15 µM, respectively. For the compound `Cc1cc(N)c2[nH]ncc2c1-c1c(Cl)cc2c(N3CCOCC3)nc(OCCCN(C)C)nc2c1F` [Compound 174], the IC50 in test [2] was > 15 µM. With `CN(C(=O)CO)C1CN(c2nc(N3CCNCC3)c3cc(Cl)c(-c4cc(O)cc5ccccc45)c(F)c3n2)C1` [Compound 346], the IC50 in test [2] and in test [1] was > 15 µM each time. As to `CN(CCCCCN=[N+]=[N-])CCCOc1nc(N2CCOCC2)c2cc(Cl)c(-c3cc(O)cc4ccccc34)c(F)c2n1` [Compound 167], in test [2], the IC50 is > 15 µM.

On to `CN(C)CCCOc1nc(N2CCNCC2)c2cc(Cl)c(-c3c(O)cccc3F)c(F)c2n1` [Compound 112], for which the half-inhibitory concentration (IC50) in test [2] and in test [1] was > 15 µM throughout. In the case of `CN(C)CCCOc1nc(N2CCNC(CC(N)=O)C2)c2cc(Cl)c(-c3cc(O)cc4ccccc34)c(F)c2n1` (centres unmarked) [Compound 169], the IC50 in test [2] is < 15 µM.

On to `CN(C(=O)CCl)C1CN(c2nc(N3CCOCC3)c3cc(Cl)c(-c4cc(O)cc5ccccc45)c(F)c3n2)C1` [Compound 350], for which the IC50 in test [2] and in test [1] was > 15 µM each time. On to `CN(C)CCCOc1nc(N2CCNCC2)c2cc(C(F)(F)F)c(-c3cc(O)cc4ccccc34)c(F)c2n1` [Compound 147], for which the IC50 in test [1] was > 15 µM.

With `CC(=O)N1CCN(c2nc(OCCCN(C)C)nc3c(F)c(-c4cc(O)cc5ccccc45)c(C(F)(F)F)cc23)CC1` (atropisomer, axis not shown) [Compound 158], the IC50 was > 15 µM in test [2] and < 15 µM in test [1].

With `CN(C)CCCOc1nc(N2CCOCC2)c2cc(Cl)c(-c3cc(O)cc4ccccc34)c(F)c2n1` (atropisomer, axis not shown) [Compound 151], the IC50 is > 15 µM in test [2] and < 15 µM in test [1]. On the same counts, the results for `CN(C)CC(O)COc1nc(N2CCNCC2)c2cc(Cl)c(-c3cc(O)cc4ccccc34)c(F)c2n1` (centres unmarked) [Compound 120] are > 15 µM and > 15 µM.
